# Test results from patent publication US9586931B2 (Merck Sharp & Dohme Corp., priority 2012, dated 2017).
# Molecular target: T1, recombinant human GST-Syk (Homo sapiens, UniProt P43405)
# T1 construct: purchased Carna Biosciences 08-176
# Test: Homogeneous Time-Resolved Fluorescence (HTRF) assay for the recombinant human Syk enzyme
# Type: biochemical
# Conditions: recombinant human GST-Syk 5 pM, ATP 25 μM, 10-dose titration 10 μM to 0.508 nM; read-out: rhSYK Activity IC50
# In short: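 Detection used time-resolved fluorescence 30 min after adding a quench mix (40 mM EDTA, 15 mM Tris pH 7.5, 0.01% Tween 20) containing 2 nM Europium anti-pTyr antibody and 70 nM streptavidin-APC. This followed 45 min of room-temperature peptide phosphorylation by recombinant GST-tagged human Syk.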
row,IC50 [nM],Compound
1,1.6,"Cc1cc(Nc2cc(C(F)(F)F)ccn2)nc(-c2cn(Cc3[nH]cnc3C)nn2)c1 [Example 5.106, 4-methyl-6-{1-[(4-methyl-1H-imidazol-5-yl)methyl]-1H-1,2,3-triazol-4-yl}-N-[4-(trifluoromethyl)pyridin-2-yl]pyridin-2-amine]"
2,17.7,"Cc1cc(Nc2cc(C(F)(F)F)ccn2)nc(-c2cn(C3CCCCC(O)C3O)nn2)c1 (single isomer, unassigned) [Example 10.2, 3-[4-(4-methyl-6-{[4-(trifluoromethyl)pyridin-2-yl]amino}pyridin-2-yl)-1H-1,2,3-triazol-1-yl]cycloheptane-1,2-diol]"
3,28.9,"C=C(C)Cn1cc(-c2cc(C)cc(Nc3cc(C(F)(F)F)ccn3)n2)nn1 [Example 5.40, 4-methyl-6-[1-(2-methylprop-2-en-1-yl)-1H-1,2,3-triazol-4-yl]-N-[4-(trifluoromethyl)pyridin-2-yl]pyridin-2-amine]"
4,3.8,"Cc1cc(Nc2cc(C(F)(F)F)ccn2)nc(-c2cn(C3CCC(C(N)=O)C(C)(C)C3)nn2)c1 (single isomer, unassigned) [Example 1.4, 2,2-dimethyl-4-[4-(4-methyl-6-{[4-(trifluoromethyl)pyridin-2-yl]amino}pyridin-2-yl)-1H-1,2,3-triazol-1-yl]cyclohexanecarboxamide]"
5,11.2,"Cc1cc(Nc2cc(C(F)(F)F)ccn2)nc(-c2cn(CC3(O)CCOC3)nn2)c1 (single isomer, unassigned) [Example 5.12, 3-{[4-(4-methyl-6-{[4-(trifluoromethyl)pyridin-2-yl]amino}pyridin-2-yl)-1H-1,2,3-triazol-1-yl]methyl}tetrahydrofuran-3-ol]"
6,11.8,"Cc1cc(Nc2cc(C(F)(F)F)ccn2)nc(-c2cn(C(C(N)=O)c3ccccc3)nn2)c1 (stereo not shown) [Example 1.18, 2-[4-(4-methyl-6-{[4-(trifluoromethyl)pyridin-2-yl]amino}pyridin-2-yl)-1H-1,2,3-triazol-1-yl]-2-phenylacetamide]"
7,27.7,"CCOC(=O)Cn1cc(-c2cc(C)cc(Nc3cc(C(F)(F)F)ccn3)n2)nn1 [Example 5.100, ethyl [4-(4-methyl-6-{[4-(trifluoromethyl)pyridin-2-yl]amino}pyridin-2-yl)-1H-1,2,3-triazol-1-yl]acetate]"
8,11.5,"Cc1cc(Nc2cc(C(F)(F)F)ccn2)nc(-c2cn(C3CS(=O)(=O)CC3O)nn2)c1 (stereo not shown) [Example 5.90, 4-[4-(4-methyl-6-{[4-(trifluoromethyl)pyridin-2-yl]amino}pyridin-2-yl)-1H-1,2,3-triazol-1-yl]tetrahydrothiophene-3-ol 1,1-dioxide]"
9,92.8,"COC(=O)CNC(=O)[C@@H](C)n1cc(-c2cc(C)cc(Nc3cc(C(F)(F)F)ccn3)n2)nn1 [Example 1.57, methyl N-{(2R)-2-[4-(4-methyl-6-{[4-(trifluoromethyl)pyridin-2-yl]amino}pyridin-2-yl)-1H-1,2,3-triazol-1-yl]propanoyl}glycinate]"
10,1.9,"Cc1cc(Nc2cc(C(F)F)ccn2)nc(-c2cn(CC3(C)CNC(=O)O3)nn2)c1 (single isomer, unassigned) [Example 7.8, 5-((4-(6-((4-(difluoromethyl)pyridin-2-yl)amino)-4-methylpyridin-2-yl) 1H-1,2,3-triazol-1-yl)methyl)-5-methyloxazolidin-2-one]"
11,70.4,"Cc1cc(Nc2cc(C(F)(F)F)ccn2)nc(-c2cn(CC3(O)CCC(C(=O)O)C(C)(C)C3)nn2)c1 (stereo not shown) [Example 3.5, 4-hydroxy-2,2-dimethyl-4-{[4-(4-methyl-6-{[4-(trifluoromethyl)pyridin-2-yl]amino}pyridin-2-yl)-1H-1,2,3-triazol-1-yl]methyl}cyclohexanecarboxylic acid]"

# Further lines, the compound ahead of its results:
row,Compound,IC50 [nM]
1,"Cc1cc(Nc2cc(C(F)F)ccn2)nc(-c2cn(CC3OC(=O)NC3C)nn2)c1 (single isomer, unassigned) [Example 7.43, 5-{[4-(6-{[4-(difluoromethyl)pyridin-2-yl]amino}-4-methylpyridin-2-yl)-1H-1,2,3-triazol-1-yl]methyl}-4-methyl-1,3-oxazolidin-2-one]",3.8
2,"Cc1cc(Nc2nccc(C)n2)cc(-c2cn(CC(C)(O)C(C)(C)O)nn2)c1 (stereo not shown) [Example 21.35, 2,3-dimethyl-1-(4-{3-methyl-5-[(4-methylpyrimidin-2-yl)amino]phenyl}-1H-1,2,3-triazol-1-yl)butane-2,3-diol]",83.9
3,"Cc1cc(Nc2nccc(C(F)F)n2)cc(-c2cn(CC3OC(=O)NC34CC4)nn2)c1 (single isomer, unassigned) [Example 7.18, 7-((4-(3-((4-(difluoromethyl)pyrimidin-2-yl)amino)-5-methylphenyl)-1H-1,2,3-triazol-1-yl)methyl)-6-oxa-4-azaspiro[2.4]heptan-5-one]",11.7
4,"COc1nc(Nc2cc(C)cc(-c3cn(CC(C)(O)C(C)(C)O)nn3)c2)ncc1Cl (stereo not shown) [Example 21.27, 1-(4-{3-[(5-chloro-4-methoxypyrimidin-2-yl)amino]-5-methylphenyl}-1H-1,2,3-triazol-1-yl)-2,3-dimethylbutane-2,3-diol]",41.5
5,"Cc1cc(Nc2nccc(C(F)(F)F)n2)cc(-n2cc(CCC(=O)O)nn2)c1 [Example 15.14, 3-[1-(3-methyl-5-{[4-(trifluoromethyl)pyrimidin-2-yl]amino}phenyl)-1H-1,2,3-triazol-4-yl]propanoic acid]",79.6
6,"Cc1cc(Nc2nccc(OC(C)C)n2)cc(-c2cn(CC(C)(O)C(C)(C)O)nn2)c1 (stereo not shown) [Example 21.13, 2,3-dimethyl-1-[4-(3-methyl-5-{[4-(1-methylethoxy)pyrimidin-2-yl]amino}phenyl)-1H-1,2,3-triazol-1-yl]butane-2,3-diol]",39.6
7,"Cc1cc(Nc2nccc(C(F)(F)F)n2)cc(-c2cn(CC(O)C(=O)O)nn2)c1 (racemic) [Example 5.61, 2-hydroxy-3-[4-(3-methyl-5-{[4-(trifluoromethyl)pyrimidin-2-yl]amino}phenyl)-1H-1,2,3-triazol-1-yl]propanoic acid]",29.4
8,"Cc1cc(Nc2nccc(C(F)F)n2)cc(-c2cn(CC3=CCC(=O)N=C3)nn2)c1 [Example 7.16, 5-((4-(3-((4-(difluoromethyl)pyrimidin-2-yl)amino)-5-methylphenyl)-1H-1,2,3-triazol-1-yl)methyl)pyridin-2(3H)-one]",2.3
